Data published in patent publication US4395408A, “Steroids” (Roussel Uclaf, priority 1980, dated 1983).
Where a name gives a salt, the structure may show the parent alone.

System: mice
Assay: Acute Toxicity (lethal dose LD0)
Format: in vivo
Conditions: for DL0 I.P. (maximum dose which did not cause any mortality after 8 days): intraperitoneal

SMILES | DL0 I.P. (maximum dose which did not cause any mortality after 8 days) [mg/kg] | DL0 oral (maximum dose which did not cause any mortality after 8 days) [mg/kg]
C/C=C1/CC[C@H]2[C@@H]3CC[C@H]4C[C@H](N)CC[C@]4(C)[C@H]3CC[C@]12C [Example 1, (Z) 3α-amino-Δ^17(20) -5α-pregnene hydrochloride] | 100 | ≥ 400
C[C@H](O)[C@@]1(O)CC[C@H]2[C@@H]3CC[C@H]4C[C@H](N)CC[C@]4(C)[C@H]3CC[C@@]21C [Example 3, (20S)3α-amino-5α-pregnane-17α,20-diol hydrochloride] | 60 | 200
C[C@H](O)[C@H]1CC[C@H]2[C@@H]3CC[C@H]4C[C@@H](N)CC[C@@H]4[C@H]3CC[C@]12C [Example 5, (20S)3β-amino-19-nor-5α-pregnane-20-ol hydrochloride] | 100 | 400
CC(=O)[C@@]1(O)CC[C@H]2[C@@H]3CC[C@H]4C[C@H](N)CC[C@]4(C)[C@H]3CC[C@@]21C [Example 6, 3α-amino-5α-pregnane-17α-ol-20-one hydrochloride] | 60 | ≥ 400
